Measurements published in ChEMBL document CHEMBL1201862, “PubChem BioAssay data set” (2004).
Active and inactive are the calls of the source.

What was measured:
Cytochrome P450 1A2 = biological target: T1, Cytochrome P450 1A2 (Homo sapiens, UniProt P05177);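 also: PubChem cytochrome P450 panel assay, CYP1A2 panel member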
T1 sequence (P05177 whole entry): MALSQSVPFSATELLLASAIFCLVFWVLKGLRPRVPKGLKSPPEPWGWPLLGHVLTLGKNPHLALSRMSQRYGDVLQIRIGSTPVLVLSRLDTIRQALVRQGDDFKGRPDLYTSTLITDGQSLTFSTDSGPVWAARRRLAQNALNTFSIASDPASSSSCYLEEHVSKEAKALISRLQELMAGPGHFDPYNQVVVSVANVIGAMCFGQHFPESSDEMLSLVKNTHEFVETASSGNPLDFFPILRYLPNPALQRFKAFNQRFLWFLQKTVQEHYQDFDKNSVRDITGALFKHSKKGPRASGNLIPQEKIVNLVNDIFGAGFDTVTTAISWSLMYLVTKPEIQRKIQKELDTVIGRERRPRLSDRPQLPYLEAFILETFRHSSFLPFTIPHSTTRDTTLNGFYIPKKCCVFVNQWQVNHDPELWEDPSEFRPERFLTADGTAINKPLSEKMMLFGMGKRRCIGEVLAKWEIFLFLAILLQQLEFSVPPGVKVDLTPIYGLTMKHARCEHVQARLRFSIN

Cytochrome P450 2C9 = Cytochrome P450 2C9 (Homo sapiens, UniProt P11712)
Chain of Cytochrome P450 2C9 (P11712 whole entry): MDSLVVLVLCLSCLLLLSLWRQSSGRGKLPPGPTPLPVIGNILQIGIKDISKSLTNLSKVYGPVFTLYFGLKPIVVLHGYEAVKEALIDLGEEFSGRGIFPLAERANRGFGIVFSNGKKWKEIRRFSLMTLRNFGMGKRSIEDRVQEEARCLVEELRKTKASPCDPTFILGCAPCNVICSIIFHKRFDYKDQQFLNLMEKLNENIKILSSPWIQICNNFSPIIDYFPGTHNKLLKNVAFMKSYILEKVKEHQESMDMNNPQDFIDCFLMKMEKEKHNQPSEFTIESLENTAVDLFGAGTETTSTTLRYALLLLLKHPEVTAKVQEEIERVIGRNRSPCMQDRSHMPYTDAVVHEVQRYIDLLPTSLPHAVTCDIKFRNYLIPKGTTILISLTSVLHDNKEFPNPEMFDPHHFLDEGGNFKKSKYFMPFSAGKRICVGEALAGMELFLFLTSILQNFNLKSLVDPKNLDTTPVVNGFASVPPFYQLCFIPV

Cytochrome P450 2C19 = Cytochrome P450 2C19 (Homo sapiens, UniProt P33261); test: Cytochrome panel assay with activity outcomes. Panel member name: p450-cyp2c19 Compounds with AC50 equal or less than 10 uM are considered active; type: functional
Chain of Cytochrome P450 2C19 (P33261 whole entry): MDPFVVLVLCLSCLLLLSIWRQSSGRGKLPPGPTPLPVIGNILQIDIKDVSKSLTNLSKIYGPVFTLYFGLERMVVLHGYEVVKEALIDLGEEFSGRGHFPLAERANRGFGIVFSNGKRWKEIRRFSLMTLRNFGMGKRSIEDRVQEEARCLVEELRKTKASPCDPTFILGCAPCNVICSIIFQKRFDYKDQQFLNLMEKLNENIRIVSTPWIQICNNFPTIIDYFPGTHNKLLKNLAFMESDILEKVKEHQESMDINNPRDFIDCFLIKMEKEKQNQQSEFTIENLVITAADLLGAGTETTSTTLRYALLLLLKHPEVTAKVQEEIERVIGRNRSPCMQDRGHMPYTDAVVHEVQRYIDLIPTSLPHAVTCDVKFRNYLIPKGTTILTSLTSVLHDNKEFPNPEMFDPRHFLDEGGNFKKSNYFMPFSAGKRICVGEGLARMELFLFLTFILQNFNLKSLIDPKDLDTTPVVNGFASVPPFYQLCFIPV

[1] = Luminescence Cell-Based Dose Confirmation HTS to Identify Activators of 5'UTR Stem-Loop Driven Alpha-Synuclein mRNA Translation in H4 Neuroglioblastoma Cells. [Related pubchem assays: 1829 (Project Summary), 1814 (Primary HTS)]; type: functional
[2] = Luminescence Cell-Based Dose Response HTS to Identify Activators of Luciferase Translation or Activity in H4 […] Cells. [Related pubchem assays: 1829 (Project Summary), 1814 (Primary HTS)]; type: functional
H4 = test: Luminescence Cell-Based Dose Response HTS to Identify Activators of 5'UTR Stem-Loop Driven Prion Protein mRNA Translation in H4 Neuroglioblastoma Cells. [Related pubchem assays: 1829 (Project Summary), 1814 (Primary HTS)]; type: functional; details: Homo sapiens
[3] = biological target: T2, Polyadenylate-binding protein 1 (Homo sapiens, UniProt P11940); test: MLLE domain peptide-binding blockers, IC50 – biochemical, fluorescence polarization, FITC-PAM2 peptide, dose response (AID 602259); type: functional; details: read-out: IC50_Mean
T2 sequence (P11940 whole entry, the tested form may be a part): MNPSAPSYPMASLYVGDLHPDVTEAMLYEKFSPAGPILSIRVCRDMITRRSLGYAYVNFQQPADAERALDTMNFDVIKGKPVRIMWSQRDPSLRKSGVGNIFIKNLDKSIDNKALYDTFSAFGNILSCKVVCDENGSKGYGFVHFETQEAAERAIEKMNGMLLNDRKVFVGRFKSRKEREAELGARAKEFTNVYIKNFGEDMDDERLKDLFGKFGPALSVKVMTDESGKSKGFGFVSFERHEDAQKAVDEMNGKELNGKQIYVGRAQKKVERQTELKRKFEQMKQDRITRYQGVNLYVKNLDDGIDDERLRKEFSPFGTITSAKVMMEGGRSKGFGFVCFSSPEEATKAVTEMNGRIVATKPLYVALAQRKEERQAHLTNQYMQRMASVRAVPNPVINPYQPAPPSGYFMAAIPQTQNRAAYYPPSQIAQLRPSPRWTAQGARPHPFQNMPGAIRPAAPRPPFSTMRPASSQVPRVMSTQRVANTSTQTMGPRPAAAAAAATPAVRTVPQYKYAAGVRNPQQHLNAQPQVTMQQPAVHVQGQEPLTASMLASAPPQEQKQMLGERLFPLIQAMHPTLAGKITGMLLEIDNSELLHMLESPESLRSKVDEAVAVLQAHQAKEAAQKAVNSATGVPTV

[4] = biological target: T2, Polyadenylate-binding protein 1; test: MLLE binding blockers, Cy5 peptide tracer – biochemical, fluorescence polarization, Cy5-PAM2 peptide, secondary, miRNA deadenylation inhibitor project, dose response (AID 602260); type: functional; details: read-out: IC50_Mean
[5] = biological target: T3, Heat shock factor protein 1 (Mus musculus, UniProt P38532); test: enhancement of HSF1-driven luciferase signal – cell-based, NIH3T3, luminescence, dose retest, confirmation (AID 435004); type: functional;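 also: stress induced by proteasome inhibitor MG132 added 30 min after compound; luciferase reporter driven by HSF1 response element in NIH3T3 cells; actives raise luminescence as potentiators of the MG132 stress response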
T3 sequence (P38532 whole entry): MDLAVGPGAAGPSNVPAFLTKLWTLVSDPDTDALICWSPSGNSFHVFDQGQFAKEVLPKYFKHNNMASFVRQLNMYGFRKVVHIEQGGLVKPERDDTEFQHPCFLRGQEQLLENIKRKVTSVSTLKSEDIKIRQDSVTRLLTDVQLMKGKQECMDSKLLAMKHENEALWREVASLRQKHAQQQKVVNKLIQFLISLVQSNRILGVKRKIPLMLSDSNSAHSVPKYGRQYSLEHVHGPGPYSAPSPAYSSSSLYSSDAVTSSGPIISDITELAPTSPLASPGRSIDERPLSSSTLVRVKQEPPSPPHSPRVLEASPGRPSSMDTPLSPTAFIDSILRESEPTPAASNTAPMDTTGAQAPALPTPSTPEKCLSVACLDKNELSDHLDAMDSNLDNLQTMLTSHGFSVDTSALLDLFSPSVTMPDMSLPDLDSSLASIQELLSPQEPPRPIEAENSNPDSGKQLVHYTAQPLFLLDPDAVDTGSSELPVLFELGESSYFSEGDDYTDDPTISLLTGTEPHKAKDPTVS

Cytochrome P450 3A4 = Cytochrome P450 3A4 (Homo sapiens, UniProt P08684);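 also: CYP3A4 tested as one member of a cytochrome P450 panel screen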
Chain of Cytochrome P450 3A4 (P08684 whole entry): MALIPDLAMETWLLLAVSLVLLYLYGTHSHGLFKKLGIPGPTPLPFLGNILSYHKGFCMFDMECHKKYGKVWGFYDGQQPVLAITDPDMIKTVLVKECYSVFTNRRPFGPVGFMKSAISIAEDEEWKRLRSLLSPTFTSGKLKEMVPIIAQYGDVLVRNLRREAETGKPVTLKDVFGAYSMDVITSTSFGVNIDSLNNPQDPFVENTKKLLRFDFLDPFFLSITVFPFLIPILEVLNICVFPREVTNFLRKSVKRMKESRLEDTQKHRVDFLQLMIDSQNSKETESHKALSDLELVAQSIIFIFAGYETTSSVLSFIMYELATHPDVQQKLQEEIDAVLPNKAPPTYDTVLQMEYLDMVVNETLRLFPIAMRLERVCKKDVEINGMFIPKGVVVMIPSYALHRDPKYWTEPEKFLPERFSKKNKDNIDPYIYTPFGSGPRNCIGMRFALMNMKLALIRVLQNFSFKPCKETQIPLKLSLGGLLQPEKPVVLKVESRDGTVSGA

[6] = biological target: T4, Corticotropin-releasing factor receptor 2/Corticotropin-releasing factor-binding protein (Homo sapiens, UniProt P24387+Q13324); test: activators of CRF receptor 2 with binding protein – uHTS hits, confirmation (AID 602473); type: functional; details: read-out: EC50_Mean
T4 sequence (Q13324 whole entry): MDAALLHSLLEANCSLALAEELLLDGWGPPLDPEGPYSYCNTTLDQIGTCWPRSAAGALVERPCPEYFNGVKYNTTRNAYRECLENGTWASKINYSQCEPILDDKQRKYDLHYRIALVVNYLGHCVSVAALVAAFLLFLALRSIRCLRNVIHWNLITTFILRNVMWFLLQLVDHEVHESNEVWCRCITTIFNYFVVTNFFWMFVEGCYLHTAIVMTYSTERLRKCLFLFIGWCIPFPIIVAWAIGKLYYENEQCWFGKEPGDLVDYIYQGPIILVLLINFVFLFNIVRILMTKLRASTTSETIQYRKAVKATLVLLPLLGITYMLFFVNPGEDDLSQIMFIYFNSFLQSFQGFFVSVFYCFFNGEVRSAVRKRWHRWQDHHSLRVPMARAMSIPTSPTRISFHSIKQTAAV
T4 sequence (P24387 whole entry): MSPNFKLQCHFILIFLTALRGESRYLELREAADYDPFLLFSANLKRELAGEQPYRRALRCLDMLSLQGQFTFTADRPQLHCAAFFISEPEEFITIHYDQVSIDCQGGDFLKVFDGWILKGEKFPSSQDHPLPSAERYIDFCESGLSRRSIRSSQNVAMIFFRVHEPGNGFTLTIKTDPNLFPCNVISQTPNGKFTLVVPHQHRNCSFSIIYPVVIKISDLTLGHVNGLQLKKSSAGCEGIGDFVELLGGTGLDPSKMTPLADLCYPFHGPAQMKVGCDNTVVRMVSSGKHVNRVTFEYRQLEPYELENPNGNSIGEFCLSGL

[7] = biological target: T4, Corticotropin-releasing factor receptor 2/Corticotropin-releasing factor-binding protein; test: Dose Response confirmation of uHTS hits for small molecule antagonists of the CRF-binding protein and CRF-R2 receptor complex.; type: functional; details: read-out: IC50_Mean

CCOc1ccc(-n2ccnc2SCC(=O)Nc2nnc(C)s2)cc1
AC50 (Cytochrome P450 1A2): 25.1 µM (inconclusive)
AC50 (Cytochrome P450 2C9): 11.2 µM (inconclusive)

COc1cccc(Nc2ncc3nc(-c4ccccc4)c(=O)n(C4CC4)c3n2)c1
AC50 (Cytochrome P450 2C9): 10 µM (inconclusive)

COCCn1c(=O)c(-c2cccc(C#N)c2)nc2cnc(OCc3ccccc3)nc21
AC50 (Cytochrome P450 1A2): 12.6 µM (inconclusive)
AC50 (Cytochrome P450 2C19): inconclusive

O=C(OCc1nc2ccccc2s1)C1CCN(C2=NS(=O)(=O)c3ccccc32)CC1
EC50 [1]: 24 µM (active)
EC50 [2]: 24.8 µM (active)
EC50 (H4): 21.9 µM (active)

O=C(CCCc1ccccc1)N1CCN(C2CCCCC2)CC1
EC50 [1]: 13.5 µM (active)
EC50 [2]: 13.7 µM (active)
EC50 (H4): 42.8 µM (active)

Clc1ccccc1CSc1ncn(-c2ccccc2)n1
EC50 [1]: 0.191 µM (active)
EC50 [2]: 0.42 µM (active)
EC50 (H4): 36.9 µM (active)

O=C(NC(=S)Nc1ccccc1N1CCCCC1)c1ccco1
IC50 [3]: > 66 µM (inactive)
IC50 [4]: > 66 µM (inactive)

COC(=O)c1cc(OC)c(OC)cc1NC(=S)NC(=O)c1ccco1
EC50 [5]: 28.2 µM (active)

CC1(C)CC(=O)C2=C(C1)N(c1ccc(F)cc1)C(N)=C(C#N)C2c1cccs1 (configuration not stated)
AC50 (Cytochrome P450 2C9): 10 µM (inconclusive)
AC50 (Cytochrome P450 2C19; read-out: AC50): 39.8 µM (inconclusive)

COc1ccc(NCc2nnc(SCC(=O)c3ccc(OC)cc3)n2C)cc1
EC50 [1]: > 120 µM (not active)
EC50 [2]: > 120 µM (not active)
EC50 (H4): > 120 µM (not active)

Cc1cc(C)c(C#N)c(Oc2ccccc2)n1
AC50 (Cytochrome P450 2C19; read-out: AC50): 11.2 µM (inconclusive)

O=C(Cn1cnc2c(oc3ccccc32)c1=O)c1ccccc1
EC50 [1]: 104 µM (active)
EC50 [2]: 29.6 µM (active)
EC50 (H4): > 120 µM (not active)

Cn1sc(NC(=O)c2ccccc2Cl)nc1=O
AC50 (Cytochrome P450 2C9): 17.8 µM (inconclusive)

COc1ccc(C(=O)NC(C)c2cc(OC)c(OC)cc2Br)cc1 (configuration not stated)
AC50 (Cytochrome P450 2C19; read-out: AC50): 39.8 µM (inconclusive)

CC(C)Sc1nc(NCc2ccco2)c2c3c(sc2n1)COC(C)(C)C3
EC50 [1]: 14.6 µM (active)
EC50 [2]: 17.2 µM (active)
EC50 (H4): 8.39 µM (active)

CC1(C)C(=O)C(c2ccccc2)=C2CN3C(=O)N(CCc4ccccc4)C(=O)C3(Cc3ccccc3)C=C21 (configuration not stated)
AC50 (Cytochrome P450 1A2): 6.31 µM (inconclusive)
AC50 (Cytochrome P450 2C9): 12.6 µM (inconclusive)

CCOC(=O)N1CCN(C(=O)CNS(=O)(=O)c2cccs2)CC1
AC50 (Cytochrome P450 2C9): 3.98 µM (inconclusive)
AC50 (Cytochrome P450 3A4): 14.1 µM (inconclusive)

O=C(c1ccncc1)N1CCC2(CC1)CCN(c1ccccc1)CC2
AC50 (Cytochrome P450 2C19; read-out: AC50): 39.8 µM (inconclusive)

CC1(C)O[C@@H]2C[C@H]3[C@H]4C[C@H](F)C5=CC(=O)C=C[C@@]5(C)[C@@H]4[C@H](O)C[C@]3(C)[C@]2(C(=O)CO)O1
AC50 (Cytochrome P450 3A4): 12.6 µM (inconclusive)
AC50 (Cytochrome P450 2C19): inconclusive

CC1CCN(C(=O)Cn2nnc(-c3cccs3)n2)CC1
EC50 [1]: 4.67 µM (active)
EC50 [2]: 59.7 µM (active)
EC50 (H4): 23.4 µM (active)

CC(C)c1cccc2nc3c(c([Si](C)(C)C(C)(C)C)c12)Cn1c-3cccc1=O
AC50 (Cytochrome P450 1A2): 25.1 µM (inconclusive)
AC50 (Cytochrome P450 2C9): 39.8 µM (inconclusive)

CCOc1ccccc1NC(=O)CSc1nnc(-c2cccnc2)o1
IC50 [3]: > 66 µM (inactive)
IC50 [4]: > 66 µM (inactive)

COc1c(F)c(F)c(-c2csc(N)n2)c(F)c1F
IC50 [3]: > 66 µM (inactive)
IC50 [4]: > 66 µM (inactive)

COc1ccccc1CNc1cc(-c2cccc(C#N)c2)ncn1
AC50 (Cytochrome P450 3A4): 25.1 µM (inconclusive)
AC50 (Cytochrome P450 2C19; read-out: AC50): 6.31 µM (inconclusive)

CCOc1ccc(C(=O)c2cccs2)cc1
EC50 [6]: > 53 µM (inactive)
EC50 [1]: 55 µM (active)
EC50 [2]: 13.5 µM (active)
IC50 [7]: > 47.1 µM (inactive)
EC50 (H4): 11.4 µM (active)

O=C1CSC(=S)N1c1cccnc1
IC50 [3]: > 66 µM (inactive)
IC50 [4]: > 66 µM (inactive)

CCCN(CCC)CCCNC(=O)C[S+]([O-])Cc1nc(-c2ccc(OC)c(OC)c2)oc1C (configuration not stated)
AC50 (Cytochrome P450 1A2): 3.16 µM (inconclusive)
AC50 (Cytochrome P450 2C9): 39.8 µM (inconclusive)
AC50 (Cytochrome P450 3A4): 7.94 µM (inconclusive)
EC50 [5]: > 260 µM (inactive)

O=C(c1ccc(Oc2ccc(C(F)(F)F)cn2)cc1)N1CCN(c2ccccc2)CC1
AC50 (Cytochrome P450 2C9): 25.1 µM (inconclusive)
AC50 (Cytochrome P450 3A4): 14.1 µM (inconclusive)

N#CC1=C(N)N2C(=C(C#N)C13CCCCC3)SC1CCCCC12O (configuration not stated)
EC50 [5]: > 260 µM (inactive)

Cc1ccc2nsnc2c1S(=O)(=O)N(CCO)Cc1cc2cc3c(cc2nc1O)OCCO3
EC50 [1]: 14.2 µM (active)
EC50 [2]: 8.99 µM (active)
EC50 (H4): 10.4 µM (active)

COCCCNC(=O)C1CC(=O)N(Cc2ccc(OC)cc2)C1 (configuration not stated)
AC50 (Cytochrome P450 3A4): 20 µM (inconclusive)
AC50 (Cytochrome P450 2C19; read-out: AC50): 22.4 µM (inconclusive)

CS(=O)(=O)N1CCCC(C(=O)N2CCc3ccccc3C2)C1 (configuration not stated)
AC50 (Cytochrome P450 1A2): 25.1 µM (inconclusive)
AC50 (Cytochrome P450 3A4): 17.8 µM (inconclusive)
AC50 (Cytochrome P450 2C19; read-out: AC50): 35.5 µM (inconclusive)

O=P(Nc1c(Cl)cccc1Cl)(c1ccccc1)c1nc2c(s1)CCCC2 (configuration not stated)
AC50 (Cytochrome P450 2C9): 17.8 µM (inconclusive)
AC50 (Cytochrome P450 2C19; read-out: AC50): 20 µM (inconclusive)

CCOc1ccc(N2C(=O)CN=C2Nc2ccccc2F)cc1
AC50 (Cytochrome P450 1A2): 15.8 µM (inconclusive)
AC50 (Cytochrome P450 2C19; read-out: AC50): 25.1 µM (inconclusive)

COC(=O)C1CSC(C(=O)OC)N1C(=O)Nc1c(C)cccc1C (configuration not stated)
AC50 (Cytochrome P450 2C9): 25.1 µM (inconclusive)

C=C1S/C(=N/c2ccccc2Cl)N(C(=O)c2sc3ccccc3c2Cl)C1(C)C
EC50 [5]: > 260 µM (inactive)

C/C(CC(=O)Nc1cc(C)cc(C)c1)=N\NC(=O)c1ccccn1
EC50 [1]: > 120 µM (not active)
EC50 [2]: > 120 µM (not active)
EC50 (H4): 42.2 µM (active)

O=C(CSCc1cccc(Cl)c1)N/N=C/c1ccc(OCC(=O)N2CCCCC2)cc1
AC50 (Cytochrome P450 1A2): 20 µM (inconclusive)
AC50 (Cytochrome P450 2C9): 22.4 µM (inconclusive)

O=[N+]([O-])c1cccc(/C(=N/N=C/c2ccccc2Br)C23CN4CN(CN(C4)C2)C3)c1
AC50 (Cytochrome P450 1A2): 22.4 µM (inconclusive)
AC50 (Cytochrome P450 2C9): 35.5 µM (inconclusive)
AC50 (Cytochrome P450 3A4): 31.6 µM (inconclusive)
AC50 (Cytochrome P450 2C19; read-out: AC50): 14.1 µM (inconclusive)

CCc1cccc(CC)c1NC(=O)CN(CC(=O)O)CC(=O)O [ETIFENIN]
AC50 (Cytochrome P450 2C19): inconclusive
